Experimental data as given in BindingDB's records for PubMed 31761383 (n/a, 2020).

Key:
[1] = biological target: T1, Amine oxidase [flavin-containing] A (Rattus norvegicus, UniProt P21396); experiment: Inhibition of rat brain synaptosome MAO-A
T1 sequence (P21396 whole entry): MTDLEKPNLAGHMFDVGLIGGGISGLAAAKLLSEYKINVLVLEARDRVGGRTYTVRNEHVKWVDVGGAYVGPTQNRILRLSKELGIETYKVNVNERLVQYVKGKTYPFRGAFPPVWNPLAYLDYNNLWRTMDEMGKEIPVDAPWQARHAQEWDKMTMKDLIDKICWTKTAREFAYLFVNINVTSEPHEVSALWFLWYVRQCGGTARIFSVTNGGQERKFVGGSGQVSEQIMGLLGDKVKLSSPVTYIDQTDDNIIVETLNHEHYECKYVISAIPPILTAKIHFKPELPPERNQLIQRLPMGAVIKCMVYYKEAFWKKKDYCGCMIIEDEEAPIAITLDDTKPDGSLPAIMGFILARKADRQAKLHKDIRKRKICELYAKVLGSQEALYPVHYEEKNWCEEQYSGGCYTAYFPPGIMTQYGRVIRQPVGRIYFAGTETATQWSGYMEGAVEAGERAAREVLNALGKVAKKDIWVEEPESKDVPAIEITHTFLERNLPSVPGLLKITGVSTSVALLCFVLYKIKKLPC

[2] = biological target: T2, Amine oxidase [flavin-containing] B (Rattus norvegicus, UniProt P19643); experiment: Inhibition of rat brain synaptosome MAO-B
T2 sequence (P19643 whole entry): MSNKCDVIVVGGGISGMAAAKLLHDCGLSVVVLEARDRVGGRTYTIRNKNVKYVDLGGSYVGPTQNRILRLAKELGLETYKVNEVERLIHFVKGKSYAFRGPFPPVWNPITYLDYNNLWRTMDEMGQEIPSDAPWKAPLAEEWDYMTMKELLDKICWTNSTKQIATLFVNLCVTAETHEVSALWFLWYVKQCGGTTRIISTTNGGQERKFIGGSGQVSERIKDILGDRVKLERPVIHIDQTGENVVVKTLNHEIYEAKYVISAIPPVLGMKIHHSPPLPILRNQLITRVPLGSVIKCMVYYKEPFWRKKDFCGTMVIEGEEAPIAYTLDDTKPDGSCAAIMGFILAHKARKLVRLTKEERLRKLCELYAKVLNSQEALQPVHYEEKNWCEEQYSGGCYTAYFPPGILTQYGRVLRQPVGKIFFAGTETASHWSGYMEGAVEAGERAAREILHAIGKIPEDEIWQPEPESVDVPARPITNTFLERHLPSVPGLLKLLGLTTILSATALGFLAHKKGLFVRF

- IC50 [1]: 2.3 nM
- IC50 [2]: 13 nM
SMILES: Cc1c(C(=O)CC(C#N)C#N)c(=O)n(-c2ccccc2)n1C
